US8202863B2 (Aventis Pharmaceuticals Inc., priority 2005, dated 2012)

Assays:
[1] = molecular target: T1, Hematopoietic PGD2 Synthase (Homo sapiens, UniProt O60760); assay: Fluorescence Polarization Assay (Assay 1); assay type: binding; conditions: assigned
From the text: (§1) The compounds of the present invention can be tested for enzymatic inhibiting activity against PGD2 Synthase according to either one of the following assays.
(§2) Assay 1: Fluorescence Polarization Assay
(§3) As described in PCT publication WO 2004/016223, Example II.

[2] = molecular target: T1, Hematopoietic PGD2 Synthase; assay: Fluorescence Polarization Assay or EIA assay (which one not stated); assay type: biochemical; conditions: assay not assigned in b678 (Fluorescence Polarization or EIA)
Method: as §1, §2, §3
Assay 2: Enzyme Immunoassay (EIA) Method
• 2. Dilute 2 μL of each above concentration of compound to 38 μL of reaction buffer in 96-well plates and mix. IV. Enzyme and Substrate Solution Preparation • 1. Preparation of 0.39 ng/μL enzyme solution (0.35 ng/μL at final after compound addition). • Mix 4 μL of 4 mg/mL human h-PGDS with 396 μL of reaction buffer (to give enzyme concentration 40 μg/mL). Add 46.8 μL of 40 μg/mL h-PGDS to 4.753 mL of reaction buffer to give a total volume of 4.8 mL • 2. Preparation of Substrate Solution (PGH2): Add 0.375 mL of 0.1 mg/mL of PGH2 to 1.625 mL acetone. V. Enzyme Reaction: • 1. Add 60 μL of enzyme solution to compound well and positive control (without compound) in U-bottom polypropylene plate on ice. • 2. Add 60 μL of reaction buffer and 6.6 μL of 5% DMSO in reaction buffer into negative control wells in the plate. • 3. Add 6.6 μL of diluted compound in reaction buffer to the compound wells and mix. • 4. Add 6.6 μL of 5% DMSO in reaction buffer to the positive control well. • 5. Incubate the plate in ice for at least 30 min. • 6. Add 20 μL of substrate (PGH2) solution to compound, negative and positive control wells in the U-bottom 96 well plate on ice. • 7. Dry the plate in cold room for about 25-28 min. • 8. Pipette 45 μL of enzyme solution (above) into 96-wells with dried PGH2 and mix 3 times. Incubate on the ice for 1 min. • 9. Add 45 μL of FeCl2 solution into each wells and mix. • 10. Add 90 μL of MOX solution and mix. • 11. Incubate for 30 min at 60° C. • 12. Dilute the samples 2500× with EIA buffer. VI. EIA assay • Perform the assay according to the procedure in EIA kit provided by Cayman. Total PGD2 levels (pg/mL) were determined in the samples by EIA kits (Caymen Chemical, Catalog No. 500151) Calculate amount of PGD2 as below • Calculated % Positive control according to the equation below; % Positive control=(Compound value−Negative control)/(Positive value-Negative control value)×100. % Positive control=(Compound value-Negative control)×100(Positive Value-Negative Control Value) • Compound value=PGD2 levels (pg/mL) obtained from the standard curve in EIA assay for the samples with compound • Negative control value=PGD2 levels (pg/mL) obtained from the standard curve in EIA assay for the samples without enzyme • Positive control value=PGD2 levels (pg/mL) obtained from the standard curve in EIA assay for the samples with enzyme but without compound • IC50s are determined by excel fit to get the x value when y=½Ymax using 4 parameter logistic model for the IC50 curves. Results

PGDS = conditions: literature report; cited from earlier work
guinea pig = guinea pig model; cited from earlier work
rat = rat model; cited from earlier work

T1 sequence (O60760 whole entry): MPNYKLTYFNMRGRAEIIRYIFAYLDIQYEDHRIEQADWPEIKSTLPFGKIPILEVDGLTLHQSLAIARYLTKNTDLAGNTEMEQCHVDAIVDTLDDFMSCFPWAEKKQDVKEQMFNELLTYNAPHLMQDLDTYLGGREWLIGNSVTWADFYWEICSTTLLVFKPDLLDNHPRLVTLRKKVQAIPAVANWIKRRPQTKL

Compound	IC50 [1] [nM]	IC50 [2] [nM]	further results
O=C(Nc1ccc2nc(CCN3CCCC3)oc2c1)c1cnc(-c2ccccc2)nc1 [Example 11, 2-Phenyl-pyrimidine-5-carboxylic acid [2-(2-pyrrolidin-1-yl-ethyl)-benzooxazol-6-yl]-amide]	–	18	–
O=C(NCc1cccc(S(=O)(=O)NCCc2c[nH]cn2)c1)c1cnc(-c2cccc(F)c2)nc1 [Example 60, 2-(3-Fluoro-phenyl)-pyrimidine-5-carboxylic acid 3-[2-(1H-imidazol-4-yl)-ethylsulfamoyl]-benzylamide]	–	61	–
Cc1nc(-c2ncc(C(=O)NC3CCOCC3)cn2)no1 [Example 77, 2-(5-Methyl-[1,2,4]oxadiazole-3-yl)-pyrimidine-5-carboxylic acid (tetrahydro-pyran-4-yl)-amide]	–	514	–
O=C(NCc1ccc(N2CCOCC2)cc1)c1cnc(-c2ccccc2)nc1 [Example 87, 2-Pheny-pyrimidine-5-carboxylic acid 4-morpholin-4-ylbenzylamide]	–	12	–
CCOP(=O)(Cc1ccc(NC(=O)c2cnc(-c3ccccc3)nc2)cc1)OCC [Example 98]	–	38	–
CCOP(=O)(CCCCNC(=O)c1cnc(-c2ccccc2)nc1)OCC [Example 99, {4-[(2-Phenyl-pyrimidine-5-carbonyl)-amino]-butyl)-phosphonic acid diethyl ester]	–	23.5	–
CCOP(=O)(OCC)C(NC(=O)c1cnc(-c2ccccc2)nc1)c1ccccc1 (stereo not drawn) [Example 101, {Phenyl-[(2-phenyl-pyrimidine-5-carbonyl)-amino]-methyl)-phosphonic acid diethyl ester]	–	48	–
O=C(Nc1ccccc1)c1cnc(C2CCCCC2)nc1 [Example 114, 2-Cyclohexyl-pyrimidine-5-carboxylic acid phenylamide]	4960	–	–
c1ccc(C(OC2CCN(CCCc3nn[nH]n3)CC2)c2ccccc2)cc1 [HQL-79]	–	–	PGDS inhibition (PGDS): weak PGDS inhibitor; antiasthmatic effect (guinea pig): antiasthmatic; antiasthmatic effect (rat): antiasthmatic

Now from value to compound, other results behind:

IC50 [1] [nM]	IC50 [2] [nM]	Compound	further results
2.5	–	O=C(Nc1ccc2c(c1)CS(=O)(=O)N2)c1cnc(-c2ccccc2)nc1 [Example 8, 2-Phenyl-pyrimidine-5-carboxylic acid (2,2-dioxo-2,3-dihydro-1H-2lamda*6*-benzo[c]isothiazol-5-yl)-amide]	–
2	–	O=C(NC1CCN(Cc2ncc[nH]2)CC1)c1cnc(-c2ccccc2)nc1 [Example 9]	–
–	15	O=C(Nc1cc[nH]c(=O)n1)c1cnc(-c2ccccc2)nc1 [Example 29, 2-Phenyl-pyrimidine-5-carboxylic acid (2-oxo-1,2-dihydro-pyrimidin-4-yl)-amide]	–
32	–	O=C(NCCN1CCNC1=O)c1cnc(-c2ccccc2)nc1 [Example 33, 2-Phenyl-pyrimidine-5-carboxylic acid [2-(2-oxo-imidazolidin-1-yl)-ethyl]-amide]	–
35	–	O=C(NCCc1c[nH]cn1)c1cnc(-c2ccccc2)nc1 [Example 34, 2-Phenyl-pyrimidine-5-carboxylic acid [2-(1H-imidazol-4-yl)-ethyl]-amide]	–
2	–	O=C(NCCc1ccc2c(c1)OCO2)c1cnc(-c2ccccc2)nc1 [Example 82, 2-Phenyl-pyrimidine-5-carboxylic acid (2-benzo[133]dioxol-5-yl-ethyl)-amide]	–
23	–	O=C(Nc1ccc2[nH]ncc2c1)c1cnc(-c2ccccc2)nc1 [Example 83, 2-Pheny-pyrimidine-5-carboxylic acid (1H-indazol-5-yl)-amide]	–
6.5	–	O=C(NCc1ccc(-c2cnns2)cc1)c1cnc(-c2ccccc2)nc1 [Example 84]	–
–	7	O=C(NCc1ccc2occc2c1)c1cnc(-c2ccccc2)nc1 [Example 90, 2-Pheny-pyrimidine-5-carboxylic acid (benzofuran-5-ylmethyl)-amide]	–
–	16	NC(=O)c1ccc(CNC(=O)c2cnc(-c3ccccc3)nc2)cc1 [Example 92, 2-Pheny-pyrimidine-5-carboxylic acid 4-carbamoyl-benzylamide]	–
